Patent US10206394B2, “Herbicidal compounds” (Syngenta Participations AG, priority 2014, dated 2019)
Read-outs that look alike come from different tables or passages of the source.

How the values were obtained:
Experiment in all cases: Glasshouse assay for herbicidal activity (pre- and post-emergence), percentage phytotoxicity
Type in all cases: in vivo
[1] = test system: Alopecurus myosuroides (ALOMY); settings: Alopecurus myosuroides
Outline: (§1)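 Potted test plants in standard soil received the compound pre-emergence (day 1) or post-emergence (about day 12). Evaluation: visual damage score from 0% (none) to 100% (total), 15 days after application post-emergence, 20 days pre-emergence.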

Avena fatua (AVEFA) = settings: Avena fatua
Outline: as §1

[2] = test system: Echinochloa crus-galli (ECHCG); settings: Echinochloa crus-galli
Outline: as §1

Lolium perenne (LOLPE) = settings: Lolium perenne
Outline: as §1

[3] = post-emergence, 360 h, POST-emergence, rate 250 g/ha, visual score 15 DAA (100%=total damage, 0%=no damage), read-out: Post-emergence herbicidal activity (percentage phytotoxicity) ALOMY POST
[4] = pre-emergence, 480 h, PRE-emergence, rate 250 g/ha, visual score 20 DAA (100%=total damage, 0%=no damage), read-out: Pre-emergence herbicidal activity (percentage phytotoxicity) ALOMY PRE
[5] = post-emergence, 360 h, POST-emergence, rate 250 g/ha, visual score 15 DAA (100%=total damage, 0%=no damage), read-out: Post-emergence herbicidal activity (percentage phytotoxicity) AVEFA POST
[6] = pre-emergence, 480 h, PRE-emergence, rate 250 g/ha, visual score 20 DAA (100%=total damage, 0%=no damage), read-out: Pre-emergence herbicidal activity (percentage phytotoxicity) AVEFA PRE
[7] = post-emergence, 360 h, POST-emergence, rate 250 g/ha, visual score 15 DAA (100%=total damage, 0%=no damage), read-out: Post-emergence herbicidal activity (percentage phytotoxicity) ECHCG POST
[8] = pre-emergence, 480 h, PRE-emergence, rate 250 g/ha, visual score 20 DAA (100%=total damage, 0%=no damage), read-out: Pre-emergence herbicidal activity (percentage phytotoxicity) ECHCG PRE
[9] = post-emergence, 360 h, POST-emergence, rate 250 g/ha, visual score 15 DAA (100%=total damage, 0%=no damage), read-out: Post-emergence herbicidal activity (percentage phytotoxicity) LOLPE POST
[10] = pre-emergence, 480 h, PRE-emergence, rate 250 g/ha, visual score 20 DAA (100%=total damage, 0%=no damage), read-out: Pre-emergence herbicidal activity (percentage phytotoxicity) LOLPE PRE

| Compound | pest or weed control at 250 g/ha [1, 3] [%] | pest or weed control at 250 g/ha [1, 4] [%] | pest or weed control at 250 g/ha (Avena fatua (AVEFA); [5]) [%] | pest or weed control at 250 g/ha (Avena fatua (AVEFA); [6]) [%] | pest or weed control at 250 g/ha [2, 7] [%] | pest or weed control at 250 g/ha [2, 8] [%] | pest or weed control at 250 g/ha (Lolium perenne (LOLPE); [9]) [%] | pest or weed control at 250 g/ha (Lolium perenne (LOLPE); [10]) [%] | further results |
| --- | --- | --- | --- | --- | --- | --- | --- | --- | --- |
| Cc1cc(C)c(C2C(=O)CC(CC(=O)NCC3CCC3)C2=O)c(C)c1 (stereo not drawn) [Compound A184] | – | – | – | – | – | – | – | – | pest or weed control at 250 g/ha ([1]; post-emergence, 360 h, post-emergence, 250 g/ha, 15 DAA, visual score (100%=total damage; 0%=no damage), read-out: ALOMY POST herbicidal activity (percentage phytotoxicity)): 90%; pest or weed control at 250 g/ha ([1]; pre-emergence, 480 h, pre-emergence, 250 g/ha, 20 DAA, visual score (100%=total damage; 0%=no damage), read-out: ALOMY PRE herbicidal activity (percentage phytotoxicity)): 90%; pest or weed control at 250 g/ha (Avena fatua (AVEFA); post-emergence, 360 h, post-emergence, 250 g/ha, 15 DAA, visual score (100%=total damage; 0%=no damage), read-out: AVEFA POST herbicidal activity (percentage phytotoxicity)): 70%; pest or weed control at 250 g/ha (Avena fatua (AVEFA); pre-emergence, 480 h, pre-emergence, 250 g/ha, 20 DAA, visual score (100%=total damage; 0%=no damage), read-out: AVEFA PRE herbicidal activity (percentage phytotoxicity)): 0%; pest or weed control at 250 g/ha ([2]; post-emergence, 360 h, post-emergence, 250 g/ha, 15 DAA, visual score (100%=total damage; 0%=no damage), read-out: ECHCG POST herbicidal activity (percentage phytotoxicity)): 90%; pest or weed control at 250 g/ha ([2]; pre-emergence, 480 h, pre-emergence, 250 g/ha, 20 DAA, visual score (100%=total damage; 0%=no damage), read-out: ECHCG PRE herbicidal activity (percentage phytotoxicity)): 90%; pest or weed control at 250 g/ha (Lolium perenne (LOLPE); post-emergence, 360 h, post-emergence, 250 g/ha, 15 DAA, visual score (100%=total damage; 0%=no damage), read-out: LOLPE POST herbicidal activity (percentage phytotoxicity)): 80%; pest or weed control at 250 g/ha (Lolium perenne (LOLPE); pre-emergence, 480 h, pre-emergence, 250 g/ha, 20 DAA, visual score (100%=total damage; 0%=no damage), read-out: LOLPE PRE herbicidal activity (percentage phytotoxicity)): 90% |
| CC#Cc1cc(C)c(C2C(=O)CC(CC(N)=O)C2=O)c(C)c1 (stereo not drawn) [Compound B168] | 100 | 100 | 100 | 100 | 100 | 100 | 100 | 100 | – |
| Cc1cc(-n2cc(Cl)c(C)n2)cc(C)c1C1C(=O)CC(CC(=O)NC(C)(C)C)C1=O (stereo not drawn) [Compound B105] | – | – | – | – | – | – | – | – | pest or weed control at 250 g/ha ([1]; post-emergence, 360 h, 250 g/ha, post-emergence, 15 DAA, visual assessment (100%=total damage, 0%=no damage), read-out: Post-emergence herbicidal activity (percentage phytotoxicity) ALOMY POST): 70%; pest or weed control at 250 g/ha ([1]; pre-emergence, 480 h, 250 g/ha, pre-emergence, 20 DAA, visual assessment (100%=total damage, 0%=no damage), read-out: Pre-emergence herbicidal activity (percentage phytotoxicity) ALOMY PRE): 70%; pest or weed control at 250 g/ha (Avena fatua (AVEFA); post-emergence, 360 h, 250 g/ha, post-emergence, 15 DAA, visual assessment (100%=total damage, 0%=no damage), read-out: Post-emergence herbicidal activity (percentage phytotoxicity) AVEFA POST): 60%; pest or weed control at 250 g/ha (Avena fatua (AVEFA); pre-emergence, 480 h, 250 g/ha, pre-emergence, 20 DAA, visual assessment (100%=total damage, 0%=no damage), read-out: Pre-emergence herbicidal activity (percentage phytotoxicity) AVEFA PRE): 20%; pest or weed control at 250 g/ha ([2]; post-emergence, 360 h, 250 g/ha, post-emergence, 15 DAA, visual assessment (100%=total damage, 0%=no damage), read-out: Post-emergence herbicidal activity (percentage phytotoxicity) ECHCG POST): 100%; pest or weed control at 250 g/ha ([2]; pre-emergence, 480 h, 250 g/ha, pre-emergence, 20 DAA, visual assessment (100%=total damage, 0%=no damage), read-out: Pre-emergence herbicidal activity (percentage phytotoxicity) ECHCG PRE): 100%; pest or weed control at 250 g/ha (Lolium perenne (LOLPE); post-emergence, 360 h, 250 g/ha, post-emergence, 15 DAA, visual assessment (100%=total damage, 0%=no damage), read-out: Post-emergence herbicidal activity (percentage phytotoxicity) LOLPE POST): 60%; pest or weed control at 250 g/ha (Lolium perenne (LOLPE); pre-emergence, 480 h, 250 g/ha, pre-emergence, 20 DAA, visual assessment (100%=total damage, 0%=no damage), read-out: Pre-emergence herbicidal activity (percentage phytotoxicity) LOLPE PRE): 70% |
| C=C(C)CNC(=O)CC1CC(=O)C(c2c(C)cc(-c3ncc(Br)cn3)cc2C)C1=O (stereo not drawn) [Compound B283] | 100 | 100 | 100 | 90 | 100 | 100 | 100 | 100 | – |
| Cc1cc(-c2ccc(C#N)cn2)cc(C)c1C1C(=O)CC(CC(=O)NC(C)C)C1=O (stereo not drawn) [Compound B320] | 100 | 100 | 100 | 100 | 100 | 100 | 100 | 100 | – |
| C=CCNC(=O)CC1CC(=O)C(c2c(C)cc(-n3cc(Cl)cn3)cc2C)C1=O (stereo not drawn) [Compound B226] | 100 | 100 | 90 | 90 | 100 | 100 | 90 | 80 | – |
| Cc1cc(-c2ccc(C#N)cn2)cc(C)c1C1C(=O)CC(CC(=O)NCc2cccs2)C1=O (stereo not drawn) [Compound A156] | – | – | – | – | – | – | – | – | pest or weed control at 250 g/ha ([1]; post-emergence, 360 h, Rate 250 g/ha, post-emergence, assessed visually 15 DAA, 100%=total damage, 0%=no damage, read-out: Post-emergence herbicidal activity (percentage phytotoxicity) ALOMY POST): 70%; pest or weed control at 250 g/ha ([1]; pre-emergence, 480 h, Rate 250 g/ha, pre-emergence, assessed visually 20 DAA, 100%=total damage, 0%=no damage, read-out: Pre-emergence herbicidal activity (percentage phytotoxicity) ALOMY PRE): 60%; pest or weed control at 250 g/ha (Avena fatua (AVEFA); post-emergence, 360 h, Rate 250 g/ha, post-emergence, assessed visually 15 DAA, 100%=total damage, 0%=no damage, read-out: Post-emergence herbicidal activity (percentage phytotoxicity) AVEFA POST): 80%; pest or weed control at 250 g/ha (Avena fatua (AVEFA); pre-emergence, 480 h, Rate 250 g/ha, pre-emergence, assessed visually 20 DAA, 100%=total damage, 0%=no damage, read-out: Pre-emergence herbicidal activity (percentage phytotoxicity) AVEFA PRE): 70%; pest or weed control at 250 g/ha ([2]; post-emergence, 360 h, Rate 250 g/ha, post-emergence, assessed visually 15 DAA, 100%=total damage, 0%=no damage, read-out: Post-emergence herbicidal activity (percentage phytotoxicity) ECHCG POST): 100%; pest or weed control at 250 g/ha ([2]; pre-emergence, 480 h, Rate 250 g/ha, pre-emergence, assessed visually 20 DAA, 100%=total damage, 0%=no damage, read-out: Pre-emergence herbicidal activity (percentage phytotoxicity) ECHCG PRE): 100%; pest or weed control at 250 g/ha (Lolium perenne (LOLPE); post-emergence, 360 h, Rate 250 g/ha, post-emergence, assessed visually 15 DAA, 100%=total damage, 0%=no damage, read-out: Post-emergence herbicidal activity (percentage phytotoxicity) LOLPE POST): 80%; pest or weed control at 250 g/ha (Lolium perenne (LOLPE); pre-emergence, 480 h, Rate 250 g/ha, pre-emergence, assessed visually 20 DAA, 100%=total damage, 0%=no damage, read-out: Pre-emergence herbicidal activity (percentage phytotoxicity) LOLPE PRE): 80% |
| C=CC(C)NC(=O)CC1CC(=O)C(c2c(C)cc(-c3ncc(Cl)cc3F)cc2C)C1=O (stereo not drawn) [Compound B300] | 100 | 100 | 100 | 100 | 100 | 100 | 100 | 100 | – |
| C#CCNC(=O)CC1CC(=O)C(c2c(C)cc(-c3ccc(F)cn3)cc2C)C1=O (stereo not drawn) [Compound B387] | – | – | – | – | – | – | – | – | pest or weed control at 250 g/ha ([1]; post-emergence, 360 h, Rate 250 g/ha, post-emergence, visual assessment 15 DAA, 100%=total damage, 0%=no damage, read-out: Post-emergence herbicidal activity (percentage phytotoxicity) ALOMY POST): 90%; pest or weed control at 250 g/ha ([1]; pre-emergence, 480 h, Rate 250 g/ha, pre-emergence, visual assessment 20 DAA, 100%=total damage, 0%=no damage, read-out: Pre-emergence herbicidal activity (percentage phytotoxicity) ALOMY PRE): 90%; pest or weed control at 250 g/ha (Avena fatua (AVEFA); post-emergence, 360 h, Rate 250 g/ha, post-emergence, visual assessment 15 DAA, 100%=total damage, 0%=no damage, read-out: Post-emergence herbicidal activity (percentage phytotoxicity) AVEFA POST): 100%; pest or weed control at 250 g/ha (Avena fatua (AVEFA); pre-emergence, 480 h, Rate 250 g/ha, pre-emergence, visual assessment 20 DAA, 100%=total damage, 0%=no damage, read-out: Pre-emergence herbicidal activity (percentage phytotoxicity) AVEFA PRE): 100%; pest or weed control at 250 g/ha ([2]; post-emergence, 360 h, Rate 250 g/ha, post-emergence, visual assessment 15 DAA, 100%=total damage, 0%=no damage, read-out: Post-emergence herbicidal activity (percentage phytotoxicity) ECHCG POST): 90%; pest or weed control at 250 g/ha ([2]; pre-emergence, 480 h, Rate 250 g/ha, pre-emergence, visual assessment 20 DAA, 100%=total damage, 0%=no damage, read-out: Pre-emergence herbicidal activity (percentage phytotoxicity) ECHCG PRE): 100%; pest or weed control at 250 g/ha (Lolium perenne (LOLPE); post-emergence, 360 h, Rate 250 g/ha, post-emergence, visual assessment 15 DAA, 100%=total damage, 0%=no damage, read-out: Post-emergence herbicidal activity (percentage phytotoxicity) LOLPE POST): 90%; pest or weed control at 250 g/ha (Lolium perenne (LOLPE); pre-emergence, 480 h, Rate 250 g/ha, pre-emergence, visual assessment 20 DAA, 100%=total damage, 0%=no damage, read-out: Pre-emergence herbicidal activity (percentage phytotoxicity) LOLPE PRE): 90% |
